From PMC9953468, “In Silico, In Vitro, and Ex Vivo Biological Activity of Some Novel Mebeverine Precursors” (Biomedicines, 2023)
“Also recorded” adds a separate entry of the source. Where two headings read alike, the source gives them in different places. Marks after values point to notes of the source that are not given here.

Tests used:
MTT cell viability assay [1] = assay type: cell-based, human; conditions: human, ± SD, read-out: In vitro cytotoxicity (IC50)
Experimental: (§1) In order to evaluate the in vitro biocompatibility of the experimental compounds, a series of cell viability assays were performed against human malignant leukemic cell lines (LAMA-84, K-562) as well as normal murine fibroblast cells (CCL-1). All cell lines were purchased from the German Collection of Microorganisms and Cell Cultures (DSMZ GmbH, Braunschweig, Germany). Cell cultures were cultivated in a growth medium RPMI 1640 supplemented with 10% fetal bovine serum (FBS), 5% L-glutamine, and incubated under standard conditions of 37 °C and 5% humidified CO2 atmosphere.
(§2) The experimental design involved a number of cytotoxicity assays that measured cell growth inhibition by the newly synthesized compounds. Cell viability was evaluated using a standard MTT-based colorimetric assay. Exponential-phased cells were harvested and seeded (100 μL/well) in 96-well plates at the appropriate density (3 × 10^5) for the suspension cultures (LAMA-84 and K-562) and 1.5 × 10^5 for the adherent one (CCL-1). Cells were treated and incubated with various concentrations of the experimental compounds in the concentration range of 400-6.25 µM. After exposure time of 72 h, a filter-sterilized MTT substrate solution (5 mg/mL in PBS) was added to each well of the culture plate. A further 1–4 h incubation allowed for the formation of purple insoluble formazan precipitates. The latter were dissolved in isopropyl alcohol solution containing 5% formic acid prior to absorbance measurement at 550 nm using a microplate reader (Labexim LMR-1). Collected absorbance values were blanked against MTT and isopropanol solution and normalized to the mean value of the untreated control (100% cell viability). Semi-logarithmic “dose–response” curves were constructed and the half-inhibitory concentrations of the screened compounds against each tested cell line were calculated. Values of p ≤ 0.05 were considered statistically significant.

[2] = system: SM preparations from the corpus gastric muscle; assay: Ex vivo bioelectrical activity of smooth muscle preparations, single sucrose gap method; design: species or system Wistar rats; conditions: 5 × 10^−5 M; for Amplitude of slow waves, Measured value / Amplitude of spike potentials, Measured value / Number of slow waves, Measured value / Number of spike potentials, Measured value: 10 min, n = 7, mean ± SEM
Experimental: Adult male Wistar rats weighing 280–300 g were used. Animals were housed in standard laboratory conditions (23 to 25 °C, 50–55% humidity, 12/12 h light/dark cycle), while food and water were provided ad libitum.
Circular SM preparations were dissected from the corpus gastric muscle (26–28 mm long and 0.8–0.9 mm wide; without mucosa). Two or three muscle strips were taken from the rat stomach. The number of SM preparations used for each data point is indicated by n. After dissection, the tissues must prevent loss of viability, so during the dissection, the tissues were systematically moistened with a solution (NaCl:KCl:CaCl2 in ratio 27.2:1.1:1) prepared at 4 °C.
The BEA of SM preparations was investigated by means of the single sucrose gap method with silver non-polarizable freshly chlorinated electrodes. The muscle strips were divided into 3 zones: two electrode sections were flushed with isotonic KCl solution and Krebs solution (pH 7.3), respectively, and separated by a sucrose layer of high electric resistance. Krebs contained the following (in mM): NaCl 120; KCl 5.9; CaCl2 2.5; MgCl2 1.2; NaH2PO4 1.2; NaHCO3 15.4; glucose 11.5. All the ingredients for this solution were of analytical grade and obtained from Merck (Darmstadt, Germany). Deionized water (18.2 mX/cm^2) was used thoroughly. The KCl solution is similar to the Krebs solution but with an equimolar substitution of NaCl with KCl. An isotonic sucrose solution, due to its very high specific resistance (about 10^6 Ω·cm), provides the best possible separation of the sucrose solution from the physiological solution in the “normal” pool, on the one hand, and the solution providing a zero value of the membrane potential in the pool with another recording electrode.
The inflow rate of each solution (Krebs, KCl, and isotonic sucrose solution) was controlled by a needle valve and continuously aerated with a mixture of 95% O2 and 5% CO2, and the temperature was maintained at 37 °C. A potential difference between the two end sections of the gap (control conditions) was achieved by means of silver non-polarizable, freshly chlorinated electrodes and after a 40-min period of adaptation and stabilization was accepted as the initial (control). The Krebs solution was changed several times during the adaptation period. The viability of the SM preparations was periodically tested by treatment with 1 × 10^−6 M ACh.
The membrane potential value was visualized by means of a Linseis recorder (Selb, Germany). A pair of measuring electrodes is located on both sides of the sucrose sections. The pH (pH 7.3; 37 °C) of the Krebs bathing solution was measured before each experiment by pH-meter HI5521 (Hanna Instruments Inc., Woonsocket, RI, USA). […]
The new substances were dissolved initially in dimethyl sulphoxide (DMSO) to prepare a 5 × 10^−2 M stock solution. Further dilutions were made in distilled deionized water and were applied by adding aliquots of their concentrated solutions to the tissue bath.

MTT cell viability assay [3] = assay type: cell-based; conditions: mouse, CCL-1, normal murine fibroblast cells, read-out: In vitro cytotoxicity (IC50)
Experimental: as §1, §2

5-HT3 receptor = assay: Immunohistochemical analysis of 5-HT3 expression in gastric SM strips; design: species or system Wistar rats; key to 5-HT3 expression, 5-HT / 5-HT3 expression, Response to Compound: −: absent; +: low; ++: moderate; +++: strong; conditions: for 5-HT3 expression, Response to Compound: SM preparations incubated with the compound; for 5-HT3 expression in SM preparations: immunohistochemical staining after 1 h incubation, in words
Experimental: […] Then, each SM strip was fixed in 10% neutral buffer formalin for 24–48 h and submitted for standard processing with hematoxylin and eosin staining.
The SM fragments from a rat’s gastric wall were fixed in a 10% neutral formalin solution and embedded in paraffin. Paraffin sections of 5 μm thickness were subjected to hematoxylin and eosin (H-E) staining for histochemical analysis.
Sections of the SM fragments from the wall of a rat’s stomach with a thickness of 5 µm were deparaffinized, then subjected to antigenic detection of the epitopes with citrate buffer, and an endogenous peroxidase blockade was made with hydrogen […] 3%, a kit was used to block the endogenous biotin, and a reagent was used to block non-specific binding (Superblock, Scy Tek, Santa Cruz Biotech. Inc. Heidelberg, Germany) follows incubate for 24 h (at 4 °C) with monoclonal mouse anti-5-HT3, next incubated with a secondary antibody: biotinylated anti-rabbit for 10 min at room temperature. The reaction was visualized with 3,3′-diaminobenzidine tetrachloride and counterstained with Mayer’s hematoxylin.
A quantitative and statistical analysis of immunohistochemical reaction using the Olympus DP-Soft image system (version 4.1 for Windows) was carried out on a Microphot-SA (Nikon, Japan) microscope equipped with a Camedia-5050 Z digital camera (Olympus, Japan). The analysis was performed on sections from the SM strips from the stomach of Wistar rats (n = 6 for each group). Five sections of the SM strips were measured, and the percentage of cells expressing 5-HT3 in the circular and longitudinal layer of SM cells, as well as in the myenteric plexus of the stomach, was determined. Each antibody was analyzed for five fields, in each of them the average number of cells with positive unit area response at ×200 magnification.

[4] = LAMA-84, CML in blast crisis (bcr-abl+)

Compound | IC50 at 72 h (MTT cell viability assay [1]; K-562, Blast phase CML (bcr-abl+)) [µM] | IC50 at 72 h (MTT cell viability assay [1]; [4]) [µM] | Amplitude of slow waves, Measured value [2] [mV] | Amplitude of spike potentials, Measured value [2] | Number of slow waves, Measured value [2] [min⁻¹] | Number of spike potentials, Measured value [2] | Changes in the membrane potential ([2]; base activity taken as 100%, ↑ depolarization, ↓ hyperpolarization) [%] | IC50 at 72 h (MTT cell viability assay [3]) [µM] | 5-HT3 expression, Response to Compound (5-HT3 receptor) | 5-HT3 expression in SM preparations (5-HT3 receptor) | IC50 at 72 h (MTT cell viability assay [1]; K-562 cells (blast phase chronic myeloid leukemia), K-562, Blast phase CML (bcr-abl+)) [µM] | effect on bioelectrical activity (slow waves, spike potentials) ([2]; in words) | IC50 at 72 h (MTT cell viability assay [3]; CCL-1 normal fibroblast cells) [µM]
CC(C)C(N)Cc1ccccc1 (centres unmarked) [Compound 3, 3-Methyl-1-phenylbutan-2-amine] | 250 ± 10.5 | 239 ± 18.2 | 5.28 ± 0.33 | 2.61 ± 0.16 mV | 4.90 ± 0.09 | 48.22 ± 0.39 * min^−1 | 55 | > 300 | +++ | higher number of 5-HT3R positive cells per section; also recorded: increased intensity in 5-HT3 expression |  |  | 
CC(=O)NC(Cc1ccccc1)C(C)C (centres unmarked) [Compound 4a, N-(3-methyl-1-phenylbutan-2-yl)acetamide] |  | 360 ± 11 | 4.32 ± 0.38 | 0 * mV | 4.72 ± 0.55 | 0 * min^−1 |  |  | − | no modulation on the 5-HT3R expression; also recorded: no 5-HT3 expression observed | 276 ± 19.7 | complete disappearance of the spike potentials | > 300
